Laboratory results taken from ChEMBL document CHEMBL5247598 (Eur J Med Chem, 2022).

Tests used:
NCI/ADR-RES [1] = test: Reversal fold, ratio of doxorubicin IC50 to doxorubicin IC50 in presence of 10 uM test compound for reversal of P-gp-mediated multidrug resistance in human NCI-ADR-RES cells incubated for 48 hrs by MTT assay; type: functional
MCF7 = test: Antiproliferative activity against human MCF7 cells assessed as reduction in cell viability incubated for 48 hrs by MTT assay; type: functional, cell-based; conditions: MCF7, 48 h, read-out: IC50
NCI/ADR-RES [2] = test: Antiproliferative activity against human multidrug resistant NCI-ADR-RES cells overexpressing P-gp assessed as reduction in cell viability incubated for 48 hrs by MTT assay; type: functional, cell-based
[3] = Cytotoxicity against human HEK293T cells assessed as reduction in cell viability incubated for 48 hrs by MTT assay; type: toxicity, cell-based, HEK-293T

C=C1[C@H](OCC(C)C)[C@@H](OC(C)=O)[C@@H](OC(C)=O)C(C)(C)[C@@H]2O[C@H]2[C@H](C)[C@H](OC(=O)c2ccccc2)[C@@]2(O)C[C@@](C)(OC(C)=O)[C@H](OC(C)=O)[C@@H]2[C@H]1OCC(C)C
Ratio IC50 (NCI/ADR-RES [1]): 52.31 | IC50 (MCF7): > 100 µM | IC50 (NCI/ADR-RES [2]): > 100 µM | IC50 at 48 h [3]: 48.1 µM

C=C1[C@H](OC(C)=O)[C@@H](OC(C)=O)[C@@H](OC(C)=O)C(C)(C)/C=C/[C@H](C)[C@H]2O[C@]3(C)C[C@@]2(OC(=O)c2ccccc2)[C@H]([C@H]3OC(C)=O)[C@H]1OCC(C)C
Ratio IC50 (NCI/ADR-RES [1]): 34.3 | IC50 (MCF7): > 100 µM | IC50 (NCI/ADR-RES [2]): > 100 µM | IC50 at 48 h [3]: 13.5 µM

C=C1[C@H](OC(C)=O)[C@@H](OC(=O)c2cccc(C)c2)[C@@H](OC(C)=O)C(C)(C)/C=C/[C@H](C)[C@H](OC(=O)c2ccccc2)[C@@]2(O)C[C@@](C)(O)[C@H](OC(C)=O)[C@@H]2[C@H]1OCC(C)C
Ratio IC50 (NCI/ADR-RES [1]): 59.71 | IC50 (MCF7): 23.4 µM | IC50 (NCI/ADR-RES [2]): > 100 µM | IC50 at 48 h [3]: 4.11 µM

C=C1[C@H](O)[C@@H](OC(=O)c2cccc(C)c2)[C@@H](O)C(C)(C)/C=C/[C@H](C)[C@H](OC(=O)c2ccccc2)[C@@]2(O)C[C@@](C)(O)[C@H](OC(C)=O)[C@@H]2[C@H]1OCC(C)C
Ratio IC50 (NCI/ADR-RES [1]): 7.66 | IC50 (MCF7): 63.8 µM | IC50 (NCI/ADR-RES [2]): 75.2 µM | IC50 at 48 h [3]: 31.3 µM

C=C1[C@H](OC(C)=O)[C@@H](OC(C)=O)[C@@H](OC(C)=O)C(C)(C)/C=C/[C@H](C)[C@H](OC(=O)c2ccccc2)[C@@]2(O)C[C@@](C)(O)[C@H](OC(C)=O)[C@@H]2[C@H]1OCC(C)C
Ratio IC50 (NCI/ADR-RES [1]): 4.49 | IC50 (MCF7): > 100 µM | IC50 (NCI/ADR-RES [2]): > 100 µM | IC50 at 48 h [3]: 39.3 µM

C=C1[C@H](OC(C)=O)[C@@H](OC(=O)c2cccc(C)c2)[C@@H](OC(C)=O)C(C)(C)/C=C/[C@H](C)[C@H]2O[C@]3(C)C[C@@]2(OC(=O)c2ccccc2)[C@H]([C@H]3OC(C)=O)[C@H]1OCC(C)C
Ratio IC50 (NCI/ADR-RES [1]): 8.9 | IC50 (MCF7): > 100 µM | IC50 (NCI/ADR-RES [2]): > 100 µM | IC50 at 48 h [3]: > 100 µM

C=C1[C@H](OC(C)=O)[C@@H](OC(=O)C(C)(C)C)[C@@H](OC(C)=O)C(C)(C)/C=C/[C@H](C)[C@H](OC(=O)c2ccccc2)[C@@]2(O)C[C@@](C)(O)[C@H](OC(C)=O)[C@@H]2[C@H]1OCC(C)C
Ratio IC50 (NCI/ADR-RES [1]): 47.77 | IC50 (MCF7): > 100 µM | IC50 (NCI/ADR-RES [2]): > 100 µM | IC50 at 48 h [3]: 52.1 µM

C=C1[C@H](OC(C)=O)[C@@H](OC(=O)C(C)(C)C)[C@@H](OC(C)=O)C(C)(C)/C=C/[C@H](C)[C@H](OC(=O)c2ccccc2)[C@@]2(O)C[C@@](C)(OC(C)=O)[C@H](OC(C)=O)[C@@H]2[C@H]1OCC(C)C
Ratio IC50 (NCI/ADR-RES [1]): 33.78 | IC50 (MCF7): > 100 µM | IC50 (NCI/ADR-RES [2]): > 100 µM | IC50 at 48 h [3]: 18.9 µM

C=C1[C@H](OC(C)=O)[C@@H](OC(=O)c2cccc(C)c2)[C@@H](OC(C)=O)C(C)(C)/C=C/[C@H](C)[C@H](OC(=O)c2ccccc2)[C@@]2(O)C[C@@](C)(OC(C)=O)[C@H](OC(C)=O)[C@@H]2[C@H]1OCC(C)C
Ratio IC50 (NCI/ADR-RES [1]): 30.48 | IC50 (MCF7): > 100 µM | IC50 (NCI/ADR-RES [2]): > 100 µM | IC50 at 48 h [3]: 7.6 µM

C=C1[C@H](O)[C@@H](O)[C@@H](O)C(C)(C)/C=C/[C@H](C)[C@H](OC(=O)c2ccccc2)[C@@]2(O)C[C@@](C)(O)[C@H](OC(C)=O)[C@@H]2[C@H]1OCC(C)C
IC50 (MCF7): > 100 µM | IC50 (NCI/ADR-RES [2]): > 100 µM | IC50 at 48 h [3]: > 100 µM

C=C1[C@H](OC(C)=O)[C@@H](OC(C)=O)[C@@H](OC(C)=O)C(C)(C)/C=C/[C@H](C)[C@H](OC(=O)c2ccccc2)[C@@]2(O)C[C@@](C)(OC(C)=O)[C@H](OC(C)=O)[C@@H]2[C@H]1OCC(C)C
Ratio IC50 (NCI/ADR-RES [1]): 12.16 | IC50 (MCF7): 74.3 µM | IC50 (NCI/ADR-RES [2]): > 100 µM | IC50 at 48 h [3]: 26.1 µM

C=C1[C@H](OC(C)=O)[C@@H](OC(C)=O)[C@@H](OC(C)=O)C(C)(C)/C=C/[C@H](C)[C@H](OC(=O)c2ccccc2)[C@@]2(O)C[C@@](C)(OC(=O)c3cccc(C)c3)[C@H](OC(C)=O)[C@@H]2[C@H]1OCC(C)C
Ratio IC50 (NCI/ADR-RES [1]): 38.74 | IC50 (MCF7): > 100 µM | IC50 (NCI/ADR-RES [2]): > 100 µM | IC50 at 48 h [3]: 7.22 µM

C=C1[C@H](O)[C@@H](OC(=O)C(C)(C)C)[C@@H](O)C(C)(C)/C=C/[C@H](C)[C@H](OC(=O)c2ccccc2)[C@@]2(O)C[C@@](C)(O)[C@H](OC(C)=O)[C@@H]2[C@H]1OCC(C)C
Ratio IC50 (NCI/ADR-RES [1]): 0.91 | IC50 (MCF7): 69.9 µM | IC50 (NCI/ADR-RES [2]): > 100 µM | IC50 at 48 h [3]: 31.7 µM

C=C1[C@H](OC(C)=O)[C@@H](OC(C)=O)[C@@H](O)C(C)(C)/C=C/[C@H](C)[C@H](OC(=O)c2ccccc2)[C@@]2(O)C[C@@](C)(O)[C@H](OC(C)=O)[C@@H]2[C@H]1OCC(C)C
IC50 (MCF7): > 100 µM | IC50 (NCI/ADR-RES [2]): > 100 µM | IC50 at 48 h [3]: > 100 µM

C=C1[C@H](OCC(C)C)[C@@H](OC(C)=O)[C@@H](OC(C)=O)C(C)(C)/C=C/[C@H](C)[C@H](OC(=O)c2ccccc2)[C@@]2(O)C[C@@](C)(OC(C)=O)[C@H](OC(C)=O)[C@@H]2[C@H]1OCC(C)C
Ratio IC50 (NCI/ADR-RES [1]): 10.64 | IC50 (MCF7): > 100 µM | IC50 (NCI/ADR-RES [2]): > 100 µM | IC50 at 48 h [3]: > 100 µM

C=C1[C@H](OC(=O)c2cccc(C)c2)[C@@H](O)[C@@H](O)C(C)(C)/C=C/[C@H](C)[C@H](OC(=O)c2ccccc2)[C@@]2(O)C[C@@](C)(O)[C@H](OC(C)=O)[C@@H]2[C@H]1OCC(C)C
Ratio IC50 (NCI/ADR-RES [1]): 8.85 | IC50 (MCF7): 21.6 µM | IC50 (NCI/ADR-RES [2]): 33.6 µM | IC50 at 48 h [3]: 12 µM

CC(=O)O[C@@H]1[C@@H]2[C@@H](OCC(C)C)C3(CO3)[C@H](O)[C@@H](O)[C@@H](O)C(C)(C)/C=C/[C@H](C)[C@H](OC(=O)c3ccccc3)[C@@]2(O)C[C@@]1(C)O (some centres not stated)
IC50 (MCF7): > 100 µM | IC50 (NCI/ADR-RES [2]): > 100 µM | IC50 at 48 h [3]: > 100 µM

C=C1[C@H](OC(C)=O)[C@@H](OC(=O)C(C)(C)C)[C@@H](OC(C)=O)C(C)(C)/C=C/[C@H](C)[C@H]2O[C@]3(C)C[C@@]2(OC(=O)c2ccccc2)[C@H]([C@H]3OC(C)=O)[C@H]1OCC(C)C
Ratio IC50 (NCI/ADR-RES [1]): 21.3 | IC50 (MCF7): > 100 µM | IC50 (NCI/ADR-RES [2]): > 100 µM | IC50 at 48 h [3]: > 100 µM

C=C1[C@H](OC(C)=O)[C@@H](OC(C)=O)[C@@H](OC(C)=O)C(C)(C)/C=C/[C@H](C)[C@H](OC(=O)c2ccccc2)[C@@]2(O)C[C@@](C)(OC(=O)c3ccncc3)[C@H](OC(C)=O)[C@@H]2[C@H]1OCC(C)C
Ratio IC50 (NCI/ADR-RES [1]): 89.33 | IC50 (MCF7): > 100 µM | IC50 (NCI/ADR-RES [2]): > 100 µM | IC50 at 48 h [3]: 19.5 µM

C=C1[C@H](OCC(C)C)C2=C(C[C@@](C)(OC(C)=O)[C@@H]2OC(C)=O)[C@@H](OC(=O)c2ccccc2)[C@@H](C)/C=C/C(C)(C)[C@H](OC(C)=O)[C@H](OC(C)=O)[C@H]1OCC(C)C
Ratio IC50 (NCI/ADR-RES [1]): 15.81 | IC50 (MCF7): > 100 µM | IC50 (NCI/ADR-RES [2]): > 100 µM | IC50 at 48 h [3]: > 100 µM
